Test results published in patent US20240299591A1, “Antimicrobial Peptides and Their Use” (priority 2021, published 2024).
≈ marks a conversion by molar mass, not a printed value. Where a SMILES comes first, the peptide text is derived from it.

How the values were obtained:
Fusarium oxysporum = format: cell-based; conditions: 24 h
Protocol: Dose dependent inhibition of fungal growth by all non-labelled peptides (indicated by IC50 values) was determined via this methodology. The assays were performed using Nunc 262162 U96 polystyrene round bottomed clear plates (www.nuncbrand.com).
When testing the peptides against A. fumigatus, peptides at different concentrations were mixed with A. fumigatus conidia to reach a final volume of 100 μL per well. The final conidial concentration was 5×10^5 cells/mL in 10% Vogel's medium. After 24 h of incubation at 37° C. in 96 well plates, fungal growth with the different peptide concentrations was determined by measurement of the optical density at 610 nm in a TriStar LB 941 Multimode Microplate Reader. The IC50 values were determined using four parameter logistic regression formula provided by Sigma Plot 10.0. Values are represented as means±SEM from two independent experiments (n=3).
When testing the peptides against N. crassa and F. oxysporum, experiments were carried as described above apart from the incubation temperature was changed to 25° C. for N. crassa and 35° C. for F. oxysporum.
The IC50 of the fluorescently labelled peptides cannot be accurately determined using the optical density method described in the last section. This is because the fluorophore structures absorbed light at 610 nm which was the wavelength used for the optical density measurements. In order to overcome this, the BacTiter-Glo™ Microbial Cell Viability Assay kit purchased from Promega was used. The BacTiter-Glo™ Reagent relies on the properties of a proprietary thermostable luciferase (Ultra-Glo™ Recombinant Luciferase) and a proprietary formulation for extracting ATP from fungal cells which will generates a ‘glow-type’ luminescent signal. This is produced by the luciferase reaction shown in Scheme 1, which has a signal half-life of over 30 min depending on the experimental conditions. The luminescent signal is proportional to the amount of ATP present, which is directly proportional to the number of living cells in culture.
The IC50 assays for all fluorescently labelled peptides were performed using Greiner CELLSTAR white polystyrene wells flat bottomed 96 well plates. The incubation conditions remained the same for the optical density measurement described in the previous section. Once the incubation procedure was finished, the plate was equilibrated to room temperature. A mixture of BacTiter-Glo™ buffer and substrate was then added to the plate (100 μL per well). The plate was shaken for 5 min and read using the Tristar […] luminometer. Data analysis was performed using Sigma Plot 10.0. All values shown are presented as means±SEM from two independent experiments (n=3).

C. albican = format: cell-based
Protocol: (§1) Candida strains used were grown on SAB agar at 37° C. for 3 days, and the Cryptococcus strain was grown on SAB agar at 37° C. for 6 days. Cells were harvest using sterile inoculation loop by taking a single colony and resuspending in phosphate-buffered saline supplemented with 0.1% tween-20 (PBST). The concentration of cells was then quantified with a haemocytometer. For the determination of the minimum inhibitory concentration, cell density was adjusted to 10^6 cells/mL with 20% liquid Vogel's medium.

C. glabrata (NCPF 3309) = format: cell-based
Protocol: as §1

C. krusei (ATCC 6258) = format: cell-based
Protocol: as §1

[1] = tested on: C. inconspicua (ATCC 16783); format: cell-based
Protocol: as §1

C. auris = format: cell-based
Protocol: as §1

[2] = Viability of reconstructed cornea-like epithelium (eye irritation model); format: cell-based; conditions: human, reconstructed cornea-like epithelium (RhCE, EpiOcular™)
Protocol: (§2) FIG. 4a is a graph of the viability reconstructed cornea-like epithelium (RhCE, EpiOcular™) after incubation with MFIGA001. NC=Negative Control; PC=Positive Control. FIG. 4b is a graph of the viability reconstructed cornea-like epithelium (RhCE, EpiOcular™) after incubation with 10 µM of MFIGA001a and MFIGAF001b. NC=Negative Control; PC=Positive Control; A2=MFIGAF001a; and B1=MFIGAF001b.
(§3) MFIGAF001 was also assessed independently by a CRO (Evotec) in an OECD compliant reconstructed cornea-like epithelial cell model (RhCE, EpiOcular™).

[3] = tested on: reconstructed cornea-like epithelium (RhCE, EpiOcular™); experiment: as above; format: cell-based
Protocol: as §2, §3

S. aureus = format: cell-based, Staphylococcus aureus
Protocol: Bacteria strains used were grown on Lysogeny Broth (LB) agar at 37° C. for 1 day, and were harvest using sterile inoculation loop by taking a single colony and resuspending in PBST. The concentration of cells was quantified using a haemocytometer. For the determination of the minimum inhibitory concentration, cell density was adjusted to 10^8 cells/mL with 20% liquid LB medium.

With `N=C(N)NCCC[C@@H]1NC(=O)CNC(=O)[C@H](Cc2c[nH]c3ccccc23)NC(=O)[C@H](Cc2ccccc2)NC(=O)[C@H](Cc2c[nH]c3ccccc23)NC(=O)[C@@H](Cc2ccccc2)NC(=O)[C@H](CCCCN)NC(=O)[C@H](CCCCN)NC1=O` [MFIGAF001, Cyclo(Arg-Lys-Lys-phe-Trp-Phe-Trp-Gly)] (HELM PEPTIDE1{F.W.G.R.K.K.[dF].W}$PEPTIDE1,PEPTIDE1,1:R1-8:R2$$$V2.0) the “IC50 Fusarium oxysporum” value (Fusarium oxysporum) was 1.9 µg/mL (≈ 1.67 µM), the MIC (C. albican) was 2 µM (≈ 2.27 µg/mL) and the MIC (C. glabrata (NCPF 3309)) was 3.9 µM (≈ 4.43 µg/mL). It also gave an MIC (C. krusei (ATCC 6258)) of 3.9 µM (≈ 4.43 µg/mL), an MIC [1] of 2 µM (≈ 2.27 µg/mL) and an MIC (C. auris) of 2 µM (≈ 2.27 µg/mL). It also gave a viability at 100 µg/mL [2] of 87.3%, a viability at 200 µg/mL [2] of 87.2% and a viability at 400 µg/mL [2] of 88.6%. The viability at 500 µg/mL [2] was 93.7%, the “Toxicity, reconstructed cornea-like epithelium (FIG. 4)” value [3] was “no obvious toxicity” and the “Antibacterial activity against Staphylococcus aureus” value (S. aureus) was “Antibacterial activity”. It also gave an MIC (S. aureus) of 15.6 µM (≈ 17.7 µg/mL).
